Measurements from paper PMC12236907, “A Natural Depsipeptide Antibiotic that Targets the E site of the Bacterial Ribosome” (Research Square, 2025).
“Also recorded” adds a separate entry of the source. Where a SMILES comes first, the peptide text is derived from it. Bridges are numbered along the chain shown (N, C = ends). [ ]: non-standard residue; d: D form. dOrn = NCCC[C@@H](N)C(=O)O

How the values were obtained:
[1] = target: rabbit reticulocyte lysate; assay: Inhibition of protein synthesis in rabbit reticulocyte lysate programmed with luciferase mRNA; type: biochemical
E. coli BW25113 [2] = assay: Bacterial cell morphology by scanning electron microscopy; type: cell-based; details: E. coli BW25113, 32 and 80 μg/ml, MOPS minimal medium, 1 h at 37°C
Protocol: After treatment, the cells were centrifuged at 5,000×g for 5 min, then resuspended in a fixative solution (4% glutaraldehyde in PBS, pH 7.4) at 0.1× the original volume. The cells were fixed at room temperature for 1 h and stored overnight at 4 °C. The following day, 50 μl of the fixed cells were transferred onto coverslips coated with poly-L-lysine, dehydrated through a series of ethanol treatments, and dried using a critical point dryer. The samples were then examined with a scanning electron microscope (TESCAN VEGA-II LSU) equipped with an X-MAX 80mm^2 EDS detector, and images were captured using INCA software.

[3] = test system: E. coli strain SQ110ΔtolC::pZsbmA; details: agar with 4×MIC of MKM (32 μg/ml)
[4] = test system: E. coli BW25113 ΔtolCΔbamB expressing ManE; assay: MIC in ManE-expressing E. coli; details: manE on pGDP3
ribosome = assay: Ribosome profiling (Ribo-seq)
K. pneumoniae C1559 = assay: Time-dependent killing assay, K. pneumoniae; type: cell-based, Klebsiella pneumoniae; details: K. pneumoniae C1559, MHB, 5×MIC (80 μg/ml), 37°C, 0-24 h; mean of three biological replicates
Protocol: E. coli BW25113 and Klebsiella pneumoniae C1559 were grown overnight in 5 ml of cation-adjusted Mueller-Hinton Broth. The cultures were then inoculated into fresh medium to achieve an OD600 of 0.1, corresponding to a concentration of 10^8 CFU/ml. […] Samples were taken at 0 h, 3 h, 6 h, and 24 h post-incubation, plated on MHA plates, and incubated for 20–24 hours at 37°C. Colony counts were used to determine the log reduction in CFU/ml, comparing treated strains to untreated control samples.

E. coli BW25113 [5] = test system: E. coli BW25113
Murine infection model = type: in vivo; details: initial attempts
[6] = test system: bacteria with resistance mechanisms to other translation-inhibiting antibiotics; details: bacterial pathogens; unique site of action in the ribosome
[7] = test system: multi-drug-resistant Enterobacteriaceae
[8] = test system: E. coli strain SQ110ΔtolC::pZsbmA; assay: Minimum inhibitory concentration, hypersusceptible E. coli SQ110ΔtolC::pZsbmA and its 23S rRNA mutants; details: 11 mutants: deletion of one adenine in A2432-A2435 (10) or of C249 (1) in 23S rRNA
bacterial membrane = assay: Membrane permeabilization (propidium iodide uptake and NPN assays); type: cell-based; details: E. coli BW25113; PI 4 μM up to 10×MIC (80 μg/ml), NPN 10 μM; 30 min, room temperature
Protocol: E. coli BW25113 cells were prepared according to the method for time-dependent killing and mixed with propidium iodide at a final concentration of 4 μM. A 190 μl aliquot of the cell suspension was added to the wells of a 96-well black-wall plate, followed by the addition of 10 μl of compounds at different concentrations up to 10×MIC (80 μg/ml). Colistin (5 μg/ml) was included as a positive control. Fluorescence was measured at an excitation/emission wavelength of 535/617 nm for 30 min at room temperature using a Synergy Microplate Reader (Biotek).
An overnight culture of E. coli BW25113 was subcultured into fresh MOPS minimal medium and allowed to grow until reaching mid-exponential phase. The culture was then diluted to an OD 600 of 0.1–0.2 in the same medium and supplemented with 10 μM NPN dye (prepared from a 20 mM stock solution in acetone). A volume of 190 μl of this cell suspension was combined with 10 μl of test compounds at various concentrations in a black 96-well plate. Water served as the vehicle control, as MKM-A was dissolved in water (adjust the vehicle accordingly based on the solubility of your compound). Colistin at 5 μg/ml was included as a positive control. Fluorescence was measured over a 30 min period at room temperature using a microplate reader, with readings taken every 0.5–1 min at an excitation/emission wavelength of 350/420 nm.

[9] = highly resistant mutants of E. coli BW25113 selected by passaging

Compound: C[C@@H](O)[C@@H]1NC(=O)[C@@H](CCCNC(=N)N)NC(=O)[C@@H](CCCNC(=N)N)NC(=O)[C@@H](CC(N)=O)NC(=O)[C@@H](NC(=O)[C@@H](Cc2ccccc2)NC(=O)[C@@H](CCCN)NC(=O)[C@H](N)CCCNC(=N)N)[C@@H](C)OC(=O)[C@H](Cc2c[nH]cn2)NC1=O [MKM, manikomycin A] (H-[dR][dOrn][dF]T[dN][dR][dR]TH; ester 4-C)
- IC50 ratio rabbit reticulocyte lysate / bacterial system ([1]; IC50 9.2 μM vs 0.6 μM in E. coli system): approximately 15 fold
- inhibition of eukaryotic / mammalian translation (in words) ([1]; rabbit reticulocyte lysate (Fig. 2d)): poor inhibition; also recorded: very weak inhibitor
- IC50 ([1]; rabbit reticulocyte lysate, luciferase mRNA): 9.2 µM
- IC50 ratio to cycloheximide ([1]; rabbit reticulocyte lysate, higher than cycloheximide): 35 fold
- bacterial cell morphology (E. coli BW25113 [2]): no detectable changes in bacterial cell morphology
- frequency of resistant colonies [3]: ~ 10^−7
- increase in MIC on ManE expression [4]: > 32 fold
- metagene ribosome occupancy (ribosome; E. coli BL21ΔtolC, 50 μg/ml (25×MIC), 2 min): increased ribosome occupancy at the early mRNA codons
- codon depletion at MKM-induced arrest sites (ribosome; E. coli BL21ΔtolC, 50 μg/ml (25×MIC), 2 min, pLogo): exclusion of Thr at the sites of MKM-induced arrest
- codon enrichment at MKM-induced stalling sites (ribosome; E. coli BL21ΔtolC, 50 μg/ml (25×MIC), 2 min, pLogo, sites with ≥5-fold higher occupancy): enrichment of Pro codons in the P and A sites
- context specificity of action (summary) (ribosome; ribosome profiling and toeprinting, Pro, Leu, Thr codons): more efficiently inhibiting ribosomes translating Pro and Leu codons and exhibiting less effect on those translating Thr codons
- time-kill effect (K. pneumoniae C1559): bactericidal
- increase in MIC (E. coli BW25113 [5]; deletion of genes encoding components of the transporter YejABEF): 2–8 fold
- MIC (E. coli BW25113 [5]; [9]): 512 to 1024 µg/mL
- increase in MIC over parental strain (E. coli BW25113 [5]; [9]): 16- to 32 fold
- protective effect in murine infection model (Murine infection model): did not yield a strong protective effect
- sensitivity to resistance mechanisms against other translation inhibitors [6]: insensitive to resistance mechanisms
- killing of multi-drug-resistant Enterobacteriaceae [7]: can kill
- increase in MKM MIC [8]: > 16 fold
- membrane permeabilization / disruption (bacterial membrane): failed to permeabilize or distrupt the bacterial membrane
